Data from patent publication US11697648B2, “Fused pyrimidine pyridinone compounds as JAK inhibitors” (THERAVANCE BIOPHARMA R&D IP, LLC, priority 2019, dated 2023).

Columns and labels:
JAK3 = JAK3 (Homo sapiens (Human), UniProt P52333); experiment: Biochemical JAK3 kinase assay (LanthaScreen); conditions: for JAK3 (pKi)-JAK1 (pKi): selectivity JAK3 over JAK1, difference of pKi
Procedure, shortened: (§1)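 GST-JAK + GFP-STAT1 peptide, HEPES pH 7.5/MgCl2/EGTA/Brij-35 buffer; cpd preincubation 1 h RT; ATP start, 1 h RT; stop with 10 mM EDTA + 2 nM Tb-anti-pSTAT1; TR-FRET 520/495. 4-parameter IC50 → pKi (Cheng-Prusoff).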

Tyk2 = Tyk2 (Homo sapiens (Human), UniProt P29597); experiment: Biochemical Tyk2 kinase assay (LanthaScreen)
Procedure, shortened: as §1

JAK2 = JAK2 (Homo sapiens (Human), UniProt O60674); experiment: Biochemical JAK2 kinase assay (LanthaScreen)
Procedure, shortened: as §1

[1] = test system: IL-2 stimulated STAT5 phosphorylation in Tall-1 human T cell line (JAK3); experiment: Cellular JAK3 potency assay: inhibition of IL-2 stimulated pSTAT5 in Tall-1 T cells; assay type: cell-based; conditions: IL-2 stimulated pSTAT5, Tall-1 T cells
Procedure, shortened: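 AlphaLISA SureFire Ultra measures STAT5 Tyr694/699 phosphorylation in lysed Tall-1 human T cells. Cells were exposed to compound for 1 h at 37 °C before a 30 min IL-2 challenge (300 ng/ml final). Values are pIC50 means with standard deviation from signal-versus-concentration curves.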

Caco-2 cell monolayers = experiment: Caco-2 permeation assay; assay type: in vitro ADME; conditions: 5 μM, A-B direction, with Verapamil (25 μM)
Procedure, shortened: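 Passive A-to-B permeability with P-gp inhibited by verapamil (25 μM); compound at 5 μM, n=2. Both compartments sampled at t0 and t120 and quantified by LC-MS/MS, giving apparent permeability in cm/sec from flux, area and concentration.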

[2] = Colon and plasma mouse pharmacokinetics; assay type: in vivo; conditions: male Balb/c mice, 10 mg/kg PO, ratio of the colon AUC to the plasma AUC; for Kp: mouse, colon tissue / plasma
Experimental: Assay 5: Colon and Plasma Mouse Pharmacokinetics
To 6 male Balb/c mice was administered 10 mg/kg of compound in 1% HPMC+0.1% Tween-80 by PO administration. At 0.5, 2 and 6 hours after dose administration, animals were anesthetized, and terminal blood samples were collected by cardiac puncture, followed by collection of colon contents and colon tissue.
Blood samples were collected into K2EDTA and stored on wet ice until processed to plasma by centrifugation (12000 rpm at 4° C.). Plasma samples were transferred to cluster tubes and placed on dry ice prior to freezer storage. The colon contents from each animal were collected at each terminal blood collection time point. The colon tissues were flushed with saline and patted dry. The colon and colon content tissues were homogenized using sterile water containing 0.1% formic acid 9:1 (water:tissue, v/w). The homogenized tissues and colon contents were transferred to cluster tubes and placed on dry ice prior to freezer storage. All samples were analyzed using LC/MS/MS against analytical standards.
The composite pharmacokinetic parameters of the compounds were determined by non-compartmental analysis using Phoenix WinNonlin Version 6 (Certara, St. Louis, Mo.) and using mean values from 2 animals/time point. For plasma concentrations below the quantification limit (BQL), the lowest concentration measurable or the BLOQ (below limit of quantification) was used.
A colon to plasma ratio was determined as the ratio of the colon AUC to the plasma AUC.

JAK1 = JAK1 (Homo sapiens (Human), UniProt P23458); experiment: Biochemical JAK1 kinase assay (LanthaScreen)
Procedure, shortened: as §1

JAK1, sequence (P23458 whole entry): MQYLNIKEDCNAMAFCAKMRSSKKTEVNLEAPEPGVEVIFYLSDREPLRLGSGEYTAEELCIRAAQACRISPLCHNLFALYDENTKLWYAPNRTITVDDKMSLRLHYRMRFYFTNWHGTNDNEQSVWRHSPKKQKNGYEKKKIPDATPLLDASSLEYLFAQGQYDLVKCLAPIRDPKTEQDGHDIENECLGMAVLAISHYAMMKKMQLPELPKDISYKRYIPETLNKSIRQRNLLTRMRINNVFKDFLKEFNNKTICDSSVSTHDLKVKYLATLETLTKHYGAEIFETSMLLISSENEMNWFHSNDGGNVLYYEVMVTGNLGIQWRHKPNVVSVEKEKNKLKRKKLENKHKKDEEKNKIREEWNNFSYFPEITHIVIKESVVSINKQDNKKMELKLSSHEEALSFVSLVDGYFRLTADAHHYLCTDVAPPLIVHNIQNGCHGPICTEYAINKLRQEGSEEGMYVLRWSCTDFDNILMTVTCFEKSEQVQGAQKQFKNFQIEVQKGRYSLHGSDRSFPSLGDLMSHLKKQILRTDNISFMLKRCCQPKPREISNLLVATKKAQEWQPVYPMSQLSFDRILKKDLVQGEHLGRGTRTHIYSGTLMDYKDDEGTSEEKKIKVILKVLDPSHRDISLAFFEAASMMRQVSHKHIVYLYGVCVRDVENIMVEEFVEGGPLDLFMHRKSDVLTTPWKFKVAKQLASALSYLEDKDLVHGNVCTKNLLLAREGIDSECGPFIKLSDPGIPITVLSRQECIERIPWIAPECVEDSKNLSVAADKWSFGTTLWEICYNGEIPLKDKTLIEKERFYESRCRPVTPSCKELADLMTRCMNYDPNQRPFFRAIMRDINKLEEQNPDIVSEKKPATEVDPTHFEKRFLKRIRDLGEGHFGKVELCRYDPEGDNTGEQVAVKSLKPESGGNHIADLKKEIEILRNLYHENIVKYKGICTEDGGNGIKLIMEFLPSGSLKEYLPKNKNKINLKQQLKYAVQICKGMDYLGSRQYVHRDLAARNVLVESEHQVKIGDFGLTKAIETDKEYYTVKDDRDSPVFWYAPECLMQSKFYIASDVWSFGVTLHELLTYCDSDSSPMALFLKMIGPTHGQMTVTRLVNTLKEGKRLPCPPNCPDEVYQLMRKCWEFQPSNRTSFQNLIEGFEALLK
Tyk2, sequence (P29597 whole entry): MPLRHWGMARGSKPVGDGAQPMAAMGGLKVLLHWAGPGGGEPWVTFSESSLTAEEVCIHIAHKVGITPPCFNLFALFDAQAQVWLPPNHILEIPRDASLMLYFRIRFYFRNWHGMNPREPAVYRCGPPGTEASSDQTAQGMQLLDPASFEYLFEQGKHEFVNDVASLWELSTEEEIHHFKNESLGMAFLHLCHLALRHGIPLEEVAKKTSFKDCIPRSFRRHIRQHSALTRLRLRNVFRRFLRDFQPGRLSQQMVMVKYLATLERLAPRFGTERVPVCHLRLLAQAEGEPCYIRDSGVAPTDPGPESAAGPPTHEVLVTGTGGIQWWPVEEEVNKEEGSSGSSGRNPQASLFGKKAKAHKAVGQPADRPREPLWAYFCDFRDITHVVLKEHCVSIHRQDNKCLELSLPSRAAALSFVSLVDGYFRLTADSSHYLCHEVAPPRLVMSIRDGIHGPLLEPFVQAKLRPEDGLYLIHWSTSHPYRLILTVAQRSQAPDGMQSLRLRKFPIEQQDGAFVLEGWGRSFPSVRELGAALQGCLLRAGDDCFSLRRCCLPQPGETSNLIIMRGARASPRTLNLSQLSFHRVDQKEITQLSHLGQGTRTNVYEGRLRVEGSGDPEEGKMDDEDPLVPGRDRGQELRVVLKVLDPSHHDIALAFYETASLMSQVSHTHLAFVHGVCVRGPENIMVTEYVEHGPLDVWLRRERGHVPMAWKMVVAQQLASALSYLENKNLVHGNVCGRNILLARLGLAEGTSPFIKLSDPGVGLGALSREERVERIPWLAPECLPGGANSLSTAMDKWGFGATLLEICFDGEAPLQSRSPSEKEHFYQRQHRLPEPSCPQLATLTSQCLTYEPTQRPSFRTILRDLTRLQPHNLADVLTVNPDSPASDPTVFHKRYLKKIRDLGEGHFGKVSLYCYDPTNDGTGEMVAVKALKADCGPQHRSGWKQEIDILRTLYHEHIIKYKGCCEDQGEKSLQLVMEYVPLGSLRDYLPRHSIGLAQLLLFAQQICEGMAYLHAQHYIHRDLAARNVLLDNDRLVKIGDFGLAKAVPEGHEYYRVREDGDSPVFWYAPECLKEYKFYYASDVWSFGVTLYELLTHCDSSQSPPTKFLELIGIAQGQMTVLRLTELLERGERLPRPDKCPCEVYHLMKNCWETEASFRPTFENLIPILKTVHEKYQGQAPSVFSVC
JAK3, sequence (P52333 whole entry): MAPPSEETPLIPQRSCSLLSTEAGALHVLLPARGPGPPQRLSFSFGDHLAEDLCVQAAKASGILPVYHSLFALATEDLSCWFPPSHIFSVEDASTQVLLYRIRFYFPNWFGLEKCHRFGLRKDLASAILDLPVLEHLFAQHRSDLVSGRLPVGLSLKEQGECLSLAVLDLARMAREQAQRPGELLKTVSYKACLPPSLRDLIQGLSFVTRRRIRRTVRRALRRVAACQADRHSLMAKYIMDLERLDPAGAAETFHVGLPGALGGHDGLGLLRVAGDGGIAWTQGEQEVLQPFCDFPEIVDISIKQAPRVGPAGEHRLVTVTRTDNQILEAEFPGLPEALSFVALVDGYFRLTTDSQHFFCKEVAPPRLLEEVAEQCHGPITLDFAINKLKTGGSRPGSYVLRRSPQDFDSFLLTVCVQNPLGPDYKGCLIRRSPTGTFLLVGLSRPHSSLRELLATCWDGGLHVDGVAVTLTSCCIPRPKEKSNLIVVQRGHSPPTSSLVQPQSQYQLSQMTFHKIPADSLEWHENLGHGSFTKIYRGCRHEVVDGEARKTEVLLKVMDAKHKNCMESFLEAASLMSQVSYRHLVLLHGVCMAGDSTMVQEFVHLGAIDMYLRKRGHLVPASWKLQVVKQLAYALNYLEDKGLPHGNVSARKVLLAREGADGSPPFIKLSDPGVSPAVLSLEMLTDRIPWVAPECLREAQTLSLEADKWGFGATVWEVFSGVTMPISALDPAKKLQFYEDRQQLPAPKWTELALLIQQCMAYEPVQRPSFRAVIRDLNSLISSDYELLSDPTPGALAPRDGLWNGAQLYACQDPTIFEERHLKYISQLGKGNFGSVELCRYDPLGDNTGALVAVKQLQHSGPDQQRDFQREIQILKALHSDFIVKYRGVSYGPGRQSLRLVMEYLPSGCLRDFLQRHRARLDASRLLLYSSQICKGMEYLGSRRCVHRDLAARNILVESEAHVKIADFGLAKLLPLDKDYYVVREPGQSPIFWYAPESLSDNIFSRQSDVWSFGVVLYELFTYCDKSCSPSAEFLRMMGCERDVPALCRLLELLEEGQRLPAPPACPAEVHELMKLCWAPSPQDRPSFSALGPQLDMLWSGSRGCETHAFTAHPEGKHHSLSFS
JAK2, sequence (O60674 whole entry): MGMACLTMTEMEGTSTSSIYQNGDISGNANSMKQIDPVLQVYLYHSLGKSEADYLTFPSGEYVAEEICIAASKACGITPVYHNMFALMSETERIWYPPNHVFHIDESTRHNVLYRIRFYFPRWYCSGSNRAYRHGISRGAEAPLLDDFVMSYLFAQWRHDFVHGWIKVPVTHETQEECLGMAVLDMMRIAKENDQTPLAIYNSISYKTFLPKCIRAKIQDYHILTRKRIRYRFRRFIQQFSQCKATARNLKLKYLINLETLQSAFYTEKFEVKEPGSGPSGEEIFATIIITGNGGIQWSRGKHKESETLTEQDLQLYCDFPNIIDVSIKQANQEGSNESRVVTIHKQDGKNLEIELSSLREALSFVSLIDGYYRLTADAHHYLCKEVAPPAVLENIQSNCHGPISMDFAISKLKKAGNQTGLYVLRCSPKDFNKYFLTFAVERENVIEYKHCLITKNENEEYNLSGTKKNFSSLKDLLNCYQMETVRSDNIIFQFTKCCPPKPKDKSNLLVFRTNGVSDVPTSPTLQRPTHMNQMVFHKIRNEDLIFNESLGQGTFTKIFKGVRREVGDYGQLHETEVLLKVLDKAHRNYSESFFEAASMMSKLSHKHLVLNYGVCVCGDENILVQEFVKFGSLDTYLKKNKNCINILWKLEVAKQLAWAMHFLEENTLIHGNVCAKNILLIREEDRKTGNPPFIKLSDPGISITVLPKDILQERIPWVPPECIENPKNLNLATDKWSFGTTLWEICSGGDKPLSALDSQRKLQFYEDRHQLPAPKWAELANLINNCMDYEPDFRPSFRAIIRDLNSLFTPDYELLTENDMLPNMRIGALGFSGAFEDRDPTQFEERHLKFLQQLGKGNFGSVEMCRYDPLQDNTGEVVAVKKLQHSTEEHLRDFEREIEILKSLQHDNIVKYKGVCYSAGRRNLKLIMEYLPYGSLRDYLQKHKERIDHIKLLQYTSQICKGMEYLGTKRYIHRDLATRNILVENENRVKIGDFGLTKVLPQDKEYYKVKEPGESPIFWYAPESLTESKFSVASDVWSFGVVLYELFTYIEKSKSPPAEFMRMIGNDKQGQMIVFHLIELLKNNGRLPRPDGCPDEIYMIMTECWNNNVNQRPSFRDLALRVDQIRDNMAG

| SMILES | JAK 3 (pKi) (JAK3) | JAK3 (pKi)-JAK1 (pKi) (JAK3) | Tyk 2 (pKi) (Tyk2) | JAK 2 (pKi) (JAK2) | Tall-1 (pIC50) [1] | Caco Kp (Caco-2 cell monolayers) | Kp [2] | JAK 1 (pKi) (JAK1) | colon to plasma ratio [2] |
| --- | --- | --- | --- | --- | --- | --- | --- | --- | --- |
| C=CC(=O)N1CC(CCn2c(=O)ccc3cnc(Nc4ccc(N5CCN(C(=O)CCSC)CC5)cc4)nc32)C1 [Example 3, 8-(2-(1-acryloylazetidin-3-yl)ethyl)-2-((4-(4-(3-(methylthio)propanoyl)piperazin-1-yl)phenyl)amino)pyrido[2,3-d]pyrimidin-7(8H)-one] | A (A represents a pKi value≥10 (Ki≤0.1 nM)) | A (A represents a value of 3 or above) | E (E represents a pKi value of 7 or below (Ki of 100 nM or above)) | E (E represents a pKi value of 7 or below (Ki of 100 nM or above)) | B (B represents a pC50 value between 6.7 (included) and 7.5 (IC50 between 200 nM and 32 nM)) | A (A represents a value below 5×10^−6 cm/sec) | > 1000 | E (E represents a pKi value of 7 or below (Ki of 100 nM or above)) |  |
| C=CC(=O)N1CC(CCn2c(=O)ccc3cnc(Nc4cccc(CN5CCN(S(C)(=O)=O)CC5)c4)nc32)C1 [Example 6, 8-(2-(1-acryloylazetidin-3-yl)ethyl)-2-((3-((4-(methylsulfonyl)piperazin-1-yl)methyl)phenyl)amino)pyrido[2,3-d]pyrimidin-7(8H)-one] | B (B represents pKi value between 9 and 10 (Ki between 1 nM and 0.1 nM)) | A (A represents a value of 3 or above) | E (E represents a pKi value of 7 or below (Ki of 100 nM or above)) | E (E represents a pKi value of 7 or below (Ki of 100 nM or above)) | B (B represents a pC50 value between 6.7 (included) and 7.5 (IC50 between 200 nM and 32 nM)) | A (A represents a value below 5×10^−6 cm/sec) | > 100 | E (E represents a pKi value of 7 or below (Ki of 100 nM or above)) |  |
| C=CC(=O)N1CC(CCn2c(=O)ccc3cnc(Nc4ccc(N5CCN(C)CC5)nc4)nc32)C1 [Example 8, 8-(2-(1-acryloylazetidin-3-yl)ethyl)-2-((6-(4-methylpiperazin-1-yl)pyridin-3-yl)amino)pyrido[2,3-d]pyrimidin-7(8H)-one] | B (B represents pKi value between 9 and 10 (Ki between 1 nM and 0.1 nM)) | A (A represents a value of 3 or above) | E (E represents a pKi value of 7 or below (Ki of 100 nM or above)) | E (E represents a pKi value of 7 or below (Ki of 100 nM or above)) | B (B represents a pC50 value between 6.7 (included) and 7.5 (IC50 between 200 nM and 32 nM)) | A (A represents a value below 5×10^−6 cm/sec) | > 100 | E (E represents a pKi value of 7 or below (Ki of 100 nM or above)) |  |
| C=CC(=O)N1CC(CCn2c(=O)ccc3cnc(Nc4ccc(CN5CCOCC5)cc4)nc32)C1 [Example 44] | B (B represents pKi value between 9 and 10 (Ki between 1 nM and 0.1 nM)) | A (A represents a value of 3 or above) | E (E represents a pKi value of 7 or below (Ki of 100 nM or above)) | E (E represents a pKi value of 7 or below (Ki of 100 nM or above)) | B (B represents a pC50 value between 6.7 (included) and 7.5 (IC50 between 200 nM and 32 nM)) |  | > 50 | E (E represents a pKi value of 7 or below (Ki of 100 nM or above)) |  |
| C=CC(=O)N1CC(C(C)Cn2c(=O)ccc3cnc(Nc4ccc(N5CCN(C(C)=O)CC5)cc4)nc32)C1 (stereo not shown) [Example 156] | B (B represents pKi value between 9 and 10 (Ki between 1 nM and 0.1 nM)) | A (A represents a value of 3 or above) | E (E represents a pKi value of 7 or below (Ki of 100 nM or above)) | E (E represents a pKi value of 7 or below (Ki of 100 nM or above)) | B (B represents a pC50 value between 6.7 (included) and 7.5 (IC50 between 200 nM and 32 nM)) |  | > 14 | E (E represents a pKi value of 7 or below (Ki of 100 nM or above)) |  |
| C=CC(=O)N1CCN(CCn2c(=O)ccc3cnc(Nc4ccc(N5CCN(CCCOC)CC5)cc4)nc32)CC1 [Example 207] | B (B represents pKi value between 9 and 10 (Ki between 1 nM and 0.1 nM)) | A (A represents a value of 3 or above) | E (E represents a pKi value of 7 or below (Ki of 100 nM or above)) | E (E represents a pKi value of 7 or below (Ki of 100 nM or above)) | B (B represents a pC50 value between 6.7 (included) and 7.5 (IC50 between 200 nM and 32 nM)) | B (B represents a value between 5×10^−6 and 10×10^−6 cm/sec) |  | E (E represents a pKi value of 7 or below (Ki of 100 nM or above)) |  |
| C=CC(=O)N1CCN(CCn2c(=O)ccc3cnc(Nc4ccc(N5CCN(CCOC)CC5)cc4)nc32)CC1 [Example 208] | B (B represents pKi value between 9 and 10 (Ki between 1 nM and 0.1 nM)) | A (A represents a value of 3 or above) | E (E represents a pKi value of 7 or below (Ki of 100 nM or above)) | E (E represents a pKi value of 7 or below (Ki of 100 nM or above)) | B (B represents a pC50 value between 6.7 (included) and 7.5 (IC50 between 200 nM and 32 nM)) | B (B represents a value between 5×10^−6 and 10×10^−6 cm/sec) |  | E (E represents a pKi value of 7 or below (Ki of 100 nM or above)) |  |
| C=CC(=O)N1CCN(CCn2c(=O)ccc3cnc(Nc4cnn(CC(F)F)c4)nc32)[C@@H](CC)C1 [Example 209] | B (B represents pKi value between 9 and 10 (Ki between 1 nM and 0.1 nM)) | A (A represents a value of 3 or above) | E (E represents a pKi value of 7 or below (Ki of 100 nM or above)) | E (E represents a pKi value of 7 or below (Ki of 100 nM or above)) | B (B represents a pC50 value between 6.7 (included) and 7.5 (IC50 between 200 nM and 32 nM)) | A (A represents a value below 5×10^−6 cm/sec) |  | E (E represents a pKi value of 7 or below (Ki of 100 nM or above)) |  |
| C=CC(=O)N1CC(CCn2c(=O)ccc3cnc(Nc4cnn(C5CCN(C(=O)CSC)CC5)c4)nc32)C1 [Example 210] | A (A represents a pKi value≥10 (Ki≤0.1 nM)) | A (A represents a value of 3 or above) | E (E represents a pKi value of 7 or below (Ki of 100 nM or above)) | E (E represents a pKi value of 7 or below (Ki of 100 nM or above)) | B (B represents a pC50 value between 6.7 (included) and 7.5 (IC50 between 200 nM and 32 nM)) | A (A represents a value below 5×10^−6 cm/sec) |  | E (E represents a pKi value of 7 or below (Ki of 100 nM or above)) |  |
| C=CC(=O)N1C[C@H](Nc2ncnc3[nH]ccc23)CC[C@@H]1C [PF-06651600, 2-propen-1-one, 1-[(2S,5R)-2-methyl-5-(7-pyrrolo[2,3-d]pyrimidin-4-ylamino)-1-piperidinyl], reference compound] |  |  |  |  |  |  |  |  | 2.8 |
